Here are results for three compounds from article PMC8717366, “Synthesis and Pharmacological Characterization of Visabron, a Backbone Cyclic Peptide Dual Antagonist of α4β1 (VLA-4)/α9β1 Integrin for Therapy of Multiple Sclerosis” (JACS Au, 2021).

The target in one assay is T1, α1β1-collagen IV (Homo sapiens, UniProt P05556+P56199).
T1 construct: expressed in transfected cells; host or cells: K562 transfected with α1 integrin (gift of Dr. M. Hemler)
Nature of the assay: Adhesion of α1-K562 overexpressor cells to immobilized collagen IV. Format: cell-based. The settings on record: α1-K562 overexpressed cells; 30 min at 37 °C; read-out: IC50 α1β1-collagen IV. The method, then:
(§1) Cell adhesion assay was carried out as previously described[47] with minor modifications. The day before the experiment, each well was coated with VCAM-1 (3 mg/mL) immobilized on the 96-well plate in PBS by overnight incubation at 4 °C. Thereafter, nonspecific binding was blocked by incubating the wells with 1% (w/v) bovine serum albumin (BSA) in Hank’s Balanced Salt Solution (HBSS) containing 5 mM MgCl2 at room temperature for 1 h before use. The cells were labeled by incubation with 12.5 μM 5-chloromethylfluorescein diacetate (CMFDA) in HBSS without 1% BSA at 37 °C for 30 min. The labeled cells were then centrifuged at 1000 rpm and washed twice with HBSS containing 1% BSA to remove excess CMFDA. Labeled cells (about 1 × 10^5 cells/well) were plated on each well in the presence or absence of visabrons and incubated at 37 °C for 60 min. Unbound cells were removed by washing the wells three times with 1% (w/v) BSA in HBSS, and bound cells were lysed by the addition of 0.5% Triton X-100 (diluted in DDW). The fluorescence in each well was quantified with a SPECTRAFluor Plus plate reader (Tecan), at λex = 485 nm and λem = 530 nm. To determine the number of adhered cells from the fluorescence values, a standard curve was generated by serial dilution of known numbers of CMFDA-labeled cells. […]
(§2) Table S6. TMLD- linear peptides inhibition of adhesion of integrin expressing cells to the respective immobilized ligands a a The cells were incubated for 30 min at 37 °C with the cells (1 x 105) in the 96 -well plate, previously covered with extracellular matrix ligand, in 100 µL of HBSS containing calcium and magnesium. After being washed with the same buffer, the adhered cells were lysed by Triton X-100, and the plate was read using Tecan spectrofluorimeter. The inhibitory dose 50% (IC 50) values represent ing mean ± standard deviatio ns (n=6) were calculated from dose response curves. bJurkat cells,VCAM -1; c α9-SW480 overexpressing cells, VCAM-1; d α1-K562 overexpressing cells, collagen IV ;e α2-K562 overexpressing cells, collagen I; f K562 wild type

The next assay concerns the target T2, α2β1-collagen I (Homo sapiens, UniProt P05556+P17301).
T2 construct: expressed in transfected cells; host or cells: K562 transfected with α2 integrin (gift of Dr. M. Hemler)
Nature of the assay: Adhesion of α2-K562 overexpressor cells to immobilized collagen I. The assay is classed as cell-based. Particulars: α2-K562 overexpressed cells; 30 min at 37 °C; read-out: IC50 α2β1-collagen I. Here is the method: as §1, §2

For the next assay, the target named is T3, α5β1-fibronectin (Homo sapiens, UniProt P05556+P08648).
T3 construct: host or cells: K562 wild type
T3 sequence (P08648 42-894 limits assumed): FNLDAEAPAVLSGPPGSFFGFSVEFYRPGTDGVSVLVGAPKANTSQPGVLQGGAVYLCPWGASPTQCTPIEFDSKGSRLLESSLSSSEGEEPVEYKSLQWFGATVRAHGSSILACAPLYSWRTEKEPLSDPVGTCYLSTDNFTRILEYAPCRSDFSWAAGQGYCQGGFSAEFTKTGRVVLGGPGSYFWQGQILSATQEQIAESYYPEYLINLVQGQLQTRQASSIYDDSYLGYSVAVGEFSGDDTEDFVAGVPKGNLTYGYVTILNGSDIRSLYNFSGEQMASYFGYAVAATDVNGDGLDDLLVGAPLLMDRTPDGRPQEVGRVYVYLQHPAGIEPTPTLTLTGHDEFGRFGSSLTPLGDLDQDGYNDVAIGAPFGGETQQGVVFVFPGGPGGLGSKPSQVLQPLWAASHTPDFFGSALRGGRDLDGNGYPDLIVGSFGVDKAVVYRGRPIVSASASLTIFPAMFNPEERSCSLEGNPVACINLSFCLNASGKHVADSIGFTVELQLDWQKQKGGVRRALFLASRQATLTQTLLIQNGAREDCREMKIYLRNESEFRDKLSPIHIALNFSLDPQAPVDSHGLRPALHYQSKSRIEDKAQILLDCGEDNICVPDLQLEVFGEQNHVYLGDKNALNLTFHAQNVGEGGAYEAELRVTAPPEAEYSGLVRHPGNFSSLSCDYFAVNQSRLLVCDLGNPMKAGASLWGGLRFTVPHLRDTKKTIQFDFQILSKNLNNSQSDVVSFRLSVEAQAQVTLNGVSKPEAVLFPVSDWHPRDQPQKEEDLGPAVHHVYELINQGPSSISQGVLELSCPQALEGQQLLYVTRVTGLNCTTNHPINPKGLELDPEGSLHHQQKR
T3 sequence (P08648 895-1049 limits assumed): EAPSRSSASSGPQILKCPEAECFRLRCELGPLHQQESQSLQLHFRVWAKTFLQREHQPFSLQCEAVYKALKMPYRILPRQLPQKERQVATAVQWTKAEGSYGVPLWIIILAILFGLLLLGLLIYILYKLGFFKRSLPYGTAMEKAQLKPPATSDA
T3 sequence (P05556 21-798): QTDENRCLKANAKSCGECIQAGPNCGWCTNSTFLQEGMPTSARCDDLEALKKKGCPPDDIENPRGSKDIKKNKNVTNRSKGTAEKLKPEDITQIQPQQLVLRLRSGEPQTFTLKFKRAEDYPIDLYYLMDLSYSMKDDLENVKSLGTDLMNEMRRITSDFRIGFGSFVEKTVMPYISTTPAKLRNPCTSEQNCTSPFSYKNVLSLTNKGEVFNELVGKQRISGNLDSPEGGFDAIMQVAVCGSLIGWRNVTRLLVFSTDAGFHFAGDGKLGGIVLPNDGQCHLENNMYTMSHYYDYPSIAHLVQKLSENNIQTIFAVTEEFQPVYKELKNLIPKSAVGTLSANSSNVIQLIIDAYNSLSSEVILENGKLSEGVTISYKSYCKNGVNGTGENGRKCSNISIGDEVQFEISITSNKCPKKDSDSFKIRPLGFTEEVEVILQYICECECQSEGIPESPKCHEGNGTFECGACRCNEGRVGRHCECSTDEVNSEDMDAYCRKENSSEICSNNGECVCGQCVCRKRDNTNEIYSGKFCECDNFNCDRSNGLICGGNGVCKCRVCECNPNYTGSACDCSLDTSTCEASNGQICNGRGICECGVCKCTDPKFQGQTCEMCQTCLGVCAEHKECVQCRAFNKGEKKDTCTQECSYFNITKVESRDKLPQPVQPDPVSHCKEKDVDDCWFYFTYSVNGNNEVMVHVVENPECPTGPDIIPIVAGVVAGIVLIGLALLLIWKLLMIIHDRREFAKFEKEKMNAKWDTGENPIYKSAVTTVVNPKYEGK
Nature of the assay: Adhesion of wild-type K562 cells to immobilized fibronectin. The assay is classed as cell-based. Particulars: wild-type K562 (α5β1); 30 min at 37 °C; read-out: IC50 α5β1-fibronectin. Here is the method: as §1, §2

The next assay has as its target T4, α4β1-VCAM-1 Fc chimera (Homo sapiens, UniProt P05556+P13612).
T4 construct: purchased R&D Systems Co (Minneapolis, MN)
Put plainly: ELISA solid-phase ligand-receptor binding, integrin α4β1 to VCAM-1 Fc chimera. The method, then: (§3) Recombinant human VCAM-1 and MadCAM-1 (3 mg/mL in phosphate-buffered saline containing divalent cations), were immobilized on the wells of a 96-well ELISA plate (Dynatech Immulon) by overnight incubation at 4 °C. After washing with HBSST (Hanks’ Balanced Salt solution containing calcium and magnesium and 0.05% Tween-20) the plates were blocked with 5% BSA in HBSST by incubation at 37 °C for 1 h. The plates were washed with HBSST, and recombinant human integrin α4β1 or α4β7 (3 mg/mL) was added in the presence or absence of competitor cyclic peptides, disintegrins, or monoclonal anti-integrin antibodies dissolved in HBSS containing 1% BSA. The plates were thereafter incubated at 30 °C for 3 h, as time-binding had reached a plateau, and then washed 3 times with HBSST. Bound integrins were quantitated using primary anti-integrin polyclonal and monoclonal antibodies at a concentration of 0.5 mg/mL in HBSST containing 1% BSA, and incubated at 37 °C for 1 h. The plates were washed 3 times with HBSST and secondary antibodies- alkaline phosphatase (AP) conjugated (Sigma Co.) were added at dilution 1:1000 and incubated at 37 °C for 1 h. Thereafter, the plates were washed 3 times with HBSST and twice with HBSS and the alkaline phosphatase substrate 4-nitrophenyl phosphate was added to the wells for 30 min. The plates were read using Tecan Spectrophotometer at 405 nm. The level of nonspecific binding was measured in each experiment by determining the level of binding to wells coated with BSA alone.
A general note: In an ELISA, binding on a coated surface is turned into a signal by an enzyme label.

Another assay deals with T5, α4β7-MAdCAM-1 Fc chimera (Homo sapiens, UniProt P13612+P26010).
T5 construct: purchased R&D Systems Co (Minneapolis, MN)
Nature of the assay: ELISA solid-phase ligand-receptor binding, integrin α4β7 to MAdCAM-1 Fc chimera. The method, then:
as §3

For another assay, the target named is α9β1-VCAM-1 Fc chimera (Homo sapiens, UniProt P05556+Q13797). Nature of the assay: ELISA binding assay, α9β1 to VCAM-1 Fc chimera.
Sequence of α9β1-VCAM-1 Fc chimera (Q13797 30-1035, change not shown): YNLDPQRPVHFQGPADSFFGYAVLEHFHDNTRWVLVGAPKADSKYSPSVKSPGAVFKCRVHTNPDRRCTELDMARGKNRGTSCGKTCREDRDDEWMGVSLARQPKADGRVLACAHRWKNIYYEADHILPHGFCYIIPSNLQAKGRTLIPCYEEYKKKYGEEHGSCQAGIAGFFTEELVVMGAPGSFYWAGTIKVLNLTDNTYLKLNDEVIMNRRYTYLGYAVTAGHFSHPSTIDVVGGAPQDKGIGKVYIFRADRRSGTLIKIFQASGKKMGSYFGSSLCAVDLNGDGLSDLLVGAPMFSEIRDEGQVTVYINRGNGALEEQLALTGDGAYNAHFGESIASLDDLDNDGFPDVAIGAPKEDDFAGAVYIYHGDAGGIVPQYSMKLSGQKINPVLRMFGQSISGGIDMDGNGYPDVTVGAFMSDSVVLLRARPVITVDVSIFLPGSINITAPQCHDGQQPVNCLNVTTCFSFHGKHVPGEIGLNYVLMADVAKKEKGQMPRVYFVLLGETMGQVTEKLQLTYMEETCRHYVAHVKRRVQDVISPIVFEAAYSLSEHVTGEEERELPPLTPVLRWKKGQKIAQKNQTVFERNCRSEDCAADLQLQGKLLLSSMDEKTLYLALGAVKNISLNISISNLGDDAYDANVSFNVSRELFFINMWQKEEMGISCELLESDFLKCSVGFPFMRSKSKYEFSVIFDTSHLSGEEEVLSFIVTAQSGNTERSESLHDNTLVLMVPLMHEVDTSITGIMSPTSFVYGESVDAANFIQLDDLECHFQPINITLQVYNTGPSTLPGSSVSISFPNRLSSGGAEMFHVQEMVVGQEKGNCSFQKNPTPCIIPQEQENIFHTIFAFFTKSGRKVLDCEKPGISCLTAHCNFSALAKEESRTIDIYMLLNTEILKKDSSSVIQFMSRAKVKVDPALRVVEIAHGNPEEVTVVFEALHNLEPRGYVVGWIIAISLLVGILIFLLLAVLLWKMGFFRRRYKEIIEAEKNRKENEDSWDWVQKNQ
Sequence of α9β1-VCAM-1 Fc chimera (P05556 21-798, change not shown): as the sequence (P05556 21-798) above
For assay [1], the target named is T6, α4β1 (Jurkat lymphocytes-VCAM-1) (Homo sapiens, UniProt P05556+P13612).
T6 construct: host or cells: Jurkat (untreated or TNFα-treated)
Nature of the assay: Adhesion of Jurkat lymphocytes to immobilized VCAM-1. The assay is classed as cell-based. The method, then:
as §1, §2

Setting [2] is: Jurkat treated with TNF-α (10 ng/mL) for 24 h, read-out: IC50 Jurkat lymphocytes-VACAM-1 TNFα.
The mark [3] stands for this setting: untreated Jurkat lymphocytes (α4β1), read-out: IC50 Jurkat lymphocytes-VACAM-1 control.

Read-outs that look alike come from different tables or passages of the source. Numbered stars: 1 amine (or outer) side, 2 acyl side, 3 side chain; on linkers, the order of the positions; unused ones are H or OH. Bridge positions count the residues as written; N and C are the ends. Square brackets hold non-standard residues; d marks the D form. Peptide text beside a SMILES is read from it. N(2-Aminoethyl)Gly = O=C(CN(CCN[*:3])[*:1])[*:2]; CO = O=C([*:1])[*:2]; Nlys = NCCCCNCC(=O)O

T1 sequence (P56199 29-1179): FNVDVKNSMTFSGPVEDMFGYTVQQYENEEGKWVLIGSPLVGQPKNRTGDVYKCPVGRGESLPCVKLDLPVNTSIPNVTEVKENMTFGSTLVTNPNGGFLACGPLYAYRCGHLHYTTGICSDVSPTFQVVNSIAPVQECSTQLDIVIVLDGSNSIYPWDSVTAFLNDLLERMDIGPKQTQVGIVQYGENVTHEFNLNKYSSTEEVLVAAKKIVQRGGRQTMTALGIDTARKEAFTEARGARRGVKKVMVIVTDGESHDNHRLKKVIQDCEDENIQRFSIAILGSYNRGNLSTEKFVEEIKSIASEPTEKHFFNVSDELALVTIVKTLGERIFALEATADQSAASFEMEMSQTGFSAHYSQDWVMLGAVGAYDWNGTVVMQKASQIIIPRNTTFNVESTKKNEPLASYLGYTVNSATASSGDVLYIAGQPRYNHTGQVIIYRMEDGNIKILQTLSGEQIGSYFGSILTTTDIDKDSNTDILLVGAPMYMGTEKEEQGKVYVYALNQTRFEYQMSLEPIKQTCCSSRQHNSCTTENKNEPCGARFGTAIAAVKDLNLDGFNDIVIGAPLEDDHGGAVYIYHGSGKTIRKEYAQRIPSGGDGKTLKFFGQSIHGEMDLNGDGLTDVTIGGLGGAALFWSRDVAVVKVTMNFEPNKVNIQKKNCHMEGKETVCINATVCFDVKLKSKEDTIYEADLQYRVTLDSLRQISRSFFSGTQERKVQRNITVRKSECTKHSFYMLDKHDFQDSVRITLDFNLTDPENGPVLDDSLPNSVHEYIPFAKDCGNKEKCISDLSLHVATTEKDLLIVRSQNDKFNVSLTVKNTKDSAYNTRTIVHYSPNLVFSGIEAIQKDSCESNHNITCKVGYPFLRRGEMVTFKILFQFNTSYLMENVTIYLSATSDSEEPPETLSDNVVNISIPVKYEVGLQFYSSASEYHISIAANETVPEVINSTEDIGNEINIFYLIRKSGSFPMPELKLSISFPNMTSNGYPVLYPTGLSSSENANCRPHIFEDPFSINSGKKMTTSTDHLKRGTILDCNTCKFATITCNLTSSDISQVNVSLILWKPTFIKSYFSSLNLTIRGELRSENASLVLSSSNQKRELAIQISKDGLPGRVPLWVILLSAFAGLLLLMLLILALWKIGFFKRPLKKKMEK
T1 sequence (P05556 21-798): as the sequence (P05556 21-798) above

For the compound `CSCC[C@@H]1NC(=O)[C@H]([C@@H](C)O)NC(=O)CN(C(=O)[C@@H](N)CCCCN)CCNC(=O)NCCN(CC(=O)N[C@@H](CC(C)C)C(N)=O)C(=O)[C@H](CC(=O)O)NC(=O)[C@H](CC(C)C)NC1=O` [visabron c (2–2)] (H-K[N(2-Aminoethyl)Gly]TMLD[N(2-Aminoethyl)Gly]L-NH2; linker 2-7 via CO), the IC50 was more than 10 mM at α1β1-collagen IV; more than 10 mM on α2β1-collagen I; more than 10 mM on α5β1-fibronectin; 2300 nM at α4β1-VCAM-1 Fc chimera; more than 500 µM at α4β7-MAdCAM-1 Fc chimera; 3600 nM at α9β1-VCAM-1 Fc chimera. Besides, the IC50 in assay [1] (setting [2]) amounted to 500 nM; in assay [1] (setting [3]), 7000 nM.

`CSCC[C@@H]1NC(=O)[C@H]([C@@H](C)O)NC(=O)CN(C(=O)[C@@H](N)CCCCN)CCCCNC(=O)NCCCCN(CC(=O)N[C@@H](CC(C)C)C(N)=O)C(=O)[C@H](CC(=O)O)NC(=O)[C@H](CC(C)C)NC1=O` [visabron c (4–4)] (H-K[Nlys]TMLD[Nlys]L-NH2; linker 2-7 via CO): the IC50 was more than 10 mM on α1β1-collagen IV; more than 10 mM on α2β1-collagen I; more than 10 mM on α5β1-fibronectin; 400 nM at α4β1-VCAM-1 Fc chimera; more than 500 µM on α4β7-MAdCAM-1 Fc chimera; 400 nM on α9β1-VCAM-1 Fc chimera. In addition, the results for the IC50 in assay [1] (setting [2]) and in assay [1] (setting [3]) were 400 nM and 5000 nM, respectively.

In the case of “natalizumab: clinical-grade monoclonal antibody anti-α4β1 produced by Biogen Co. [reference compound]”, the IC50 in the assay with α1β1-collagen IV is more than 10 mM; with α2β1-collagen I, more than 10 mM; in the assay with α5β1-fibronectin it was more than 10 mM; with α4β1-VCAM-1 Fc chimera (ELISA binding assay, recombinant human VCAM-1 chimera, read-out: IC50 α4β1-VCAM-1 Fc chimera), 10 nM; with α4β7-MAdCAM-1 Fc chimera (ELISA binding assay, recombinant human MAdCAM-1 chimera, read-out: IC50 α4β7-MAdCAM-1 Fc chimera) it was 0.015 µM; with α9β1-VCAM-1 Fc chimera (ELISA binding assay per footnote b, α9-B1LBC3 overexpressed cells named in footnote a, read-out: IC50 α9β1-VCAM-1 Fc chimera), 15 nM. The IC50 stood at 2 nM in assay [1] (setting [2]) and 5 nM in assay [1] (setting [3]).

Broadly, the IC50 is the concentration at which inhibition is half-maximal.
